Patent US12655385B2, “Cell culture compositions with antioxidants and methods for polypeptide production” (Genentech, Inc., priority 2013, dated 2026)
Counter-ions that a name gives are not always drawn.

Legend:
monoclonal antibody = experiment: Screen of taurine, carnosine and aminoguanidine in culture media, relative color intensity of antibody; details: 27.2 g/L aminoguanidine hydrochloride, 7 days 37° C. 250 rpm (FIG. 10)
Experimental: In order to identify a compound that reduces in antibody compositions and works under cell culture conditions, a screen assay in cell free medium was conducted. Taurine, carnosine and aminoguanidine were chosen for screening. These compounds were dissolved in 25 mL culture media at the concentration of 1.2 g/L (taurine), 13.6 g/L (carnosine), and 27.2 g/L (aminoguanidine hydrochloride). After pH adjustment to a range from 6.8 to 7.2 and sterile filtration with Steriflip filter units (Millipore, Billerica, MA) the solution was incubated in 50 mL Falcon tubes (BD Biosciences, San Jose, CA) equipped with TubeSpin caps (TPP Techno Plastic Products AG, Trasadingen, Switzerland). CHO cells were incubated for 7 days in a moisture controlled cell culture incubator at 37° C. and 250 rpm with no protection from light to produce the monoclonal antibody.
The monoclonal antibody in the harvested cell culture fluid (HCCF) and the incubation broth was further purified with affinity chromatography. Color intensity of the concentrated antibody composition was measured in the purified pool using an assay wherein higher numerical values indicated higher color intensity and lower numerical values indicated lower color intensity.
The relative color intensity for antibodies produced in culture medium containing taurine, carnosine, or aminoguanidine are shown in FIG. 10.

[1] = test system: antibody producing CHO cells; experiment: 2-liter stirred bioreactor fed-batch cell culture in Media 1/Media 2 with hypotaurine or carboxymethylcysteine; type: cell-based, Chinese Hamster; details: for Growth as measured by VCC: 12.95 mM hypotaurine or 10 mM carboxymethylcysteine in Media 1 (FIG. 7A); for cell viability: 12.95 mM hypotaurine or 10 mM carboxymethylcysteine in Media 1 (FIG. 7B); for antibody titer (HPLC): 12.95 mM hypotaurine or 10 mM carboxymethylcysteine in Media 1 (FIG. 8)
Experimental: Antibody producing CHO cells were inoculated at approximately 1.0×10^6 cells/mL in 2-liter stirred bioreactors (Applikon, Foster City, CA) containing 1 L of basal Media 1 supplemented with 12.95 mM hypotaurine or 10 mM carboxymethylcysteine (CAS number 638-23-3). Cells were cultured in fed-batch mode with addition of 100 mL of feed Media 2 per liter of cell culture fluid at days 3, 6 and 9 for initiation of the production phase. A positive control was included by culturing cells in Media 1 and 2 without hypotaurine supplementation. The concentration of glucose was analyzed every day and if the glucose concentration fell below 2 g/L, it was replenished from a […] stock solution of glucose for prevention of glucose depletion. Reactors were equipped with calibrated dissolved oxygen, pH and temperature probes. Dissolved oxygen was controlled on-line through sparging with air and/or oxygen. pH was controlled through addition of CO2 or Na2CO3 and antifoam was added to the cultures as needed. The cell cultures were maintained at pH 7.0 and a temperature of 37° C. from days 0 through 3, and then at 35° C. after day 3. The cell cultures were agitated at 275 rpm and the dissolved oxygen level was at 30% of air saturation. Osmolality was monitored using an osmometer from Advanced Instruments (Norwood, MA). Offline pH and metabolite concentrations were also determined daily using a Nova Bioprofile 400 (Nova Biomedical, Waltham, MA). VCC and cell viability was measured daily using a ViCell® automated cell counter (Beckman Coulter, Fullerton, CA). The cell culture fluid was collected daily by centrifuging 1 mL of cell culture fluid for determination of antibody titer using high performance liquid chromatography. At the end of the cell culture duration on day 14, when the amount of protein in the culture was approximately 2-10 g/L, the cell culture fluid from all samples was harvested by centrifugation. The monoclonal antibody in the harvested cell culture fluid was purified using protein A affinity chromatography. The protein A pool was concentrated to 150 g/L using Amicon Centricon centrifugal filter devices (Millipore Corporation, Billerica, MA). Color intensity of the concentrated antibody composition was measured in the concentrated protein A pool using two different assays wherein higher numerical values indicated higher color intensity and lower numerical values indicated lower color intensity. […] This color intensity reduction was confirmed by using a second color assay which detected an approximate 17% and 13% color intensity reduction in antibody compositions isolated from cell cultured in media supplemented with hypotaurine and carboxymethylcysteine, respectively (FIG. 9B).

IgG1 monoclonal antibody = experiment: Antioxidant screening: incubation of Media 1/Media 2 mixture spiked with antibody, color intensity of purified antibody; details: 1X test concentration (hypotaurine 9.16 mM, taurine 5.00 mM), 5 days 37° C.; normalized to positive control
Experimental: For antioxidant screening, a total volume of 40 ml media was prepared by mixing 1 part basal Media 1 and 0.3 part feed Media 2 to mirror a representative ratio of media used in cell culture conditions (Table 5). […] The samples were incubated at 37° C. with shaking at 250 rpm for a five day incubation period.
After incubation, the monoclonal antibody was purified using affinity chromatography. Color intensity of the concentrated antibody composition was measured in the purified pool using an assay wherein higher numerical values indicate higher color intensity and lower numerical values indicate lower color intensity. The numerical results were normalized to the positive control, where the value for the positive control was set at 0% change in color intensity.

[2] = listed as carboxy methyl cysteine

N=C(N)NN [aminoguanidine, aminoguanidine hydrochloride]
decrease of color (monoclonal antibody): about 71%

N[C@@H](CSCC(=O)O)C(=O)O [carboxymethylcysteine, (2R)-2-amino-3-[(carboxymethyl)sulfanyl]propanoic acid]
Growth as measured by VCC [1]: comparable among all cell cultures tested | Growth as measured by VCC [1, 2]: did not compromise | cell viability [1]: comparable among all cell cultures tested | cell viability [1, 2]: did not compromise | antibody titer (HPLC) [1]: comparable levels of antibody titers | antibody titer (HPLC) [1, 2]: did not significantly reduce | color intensity reduction of antibody compositions, second color assay ([1]; 12.95 mM hypotaurine or 10 mM carboxymethylcysteine, protein A pool concentrated to 150 g/L (FIG. 9B)): ~13%

NCCS(=O)(=O)O [Taurine, 2-aminoethane-1-sulfonic acid]
reduction of color intensity of the antibody-containing compositions (IgG1 monoclonal antibody): approximately 5%
